Results reported in patent US20110190365A1, “Insecticidal 4-phenyl-1H-pyrazoles” (Bayer Crop Science AG, priority 2008, published 2011).

Test: log P by HPLC on a reversed-phase column (C18), EEC Directive 79/831 Annex V.A8
Type: physicochemical
Conditions: HCOOH
Method: The stated log P values were determined in accordance with EEC Directive 79/831 Annex V.A8 by HPLC (High Performance Liquid Chromatography) using a reversed-phase column (C18).

| Compound | log P (HCOOH) |
| --- | --- |
| COc1cc(-c2c(C(F)(F)F)nn(-c3ccc(C(=O)NCC(F)(F)C(F)F)c(C)c3)c2N)cc(Cl)c1OC [I-A-Q2-292] | I-A-Q2-292: log P (HCOOH): 3.53 |
| Cc1cc(-n2nc(C3CC3)c(-c3ccc(Cl)cc3)c2N)ccc1C(=O)NCC(F)(F)C(F)F [I-A-Q2-341] | I-A-Q2-341: log P (HCOOH): 3.46 |
| Cc1cc(-n2nc(C(F)(F)F)c(-c3cc(Cl)cc(Cl)c3)c2N)ccc1C(=O)NCc1cccc(Cl)c1 [I-A-Q2-215] | I-A-Q2-215: log P (HCOOH): 4.76 |
| Cc1cc(-n2nc(C(F)(F)F)c(-c3cc(Cl)cc(Cl)c3)c2N)ccc1C(=O)NCc1ccc(Cl)nc1 [I-A-Q2-219] | I-A-Q2-219: log P (HCOOH): 4.05 |
| CC(=O)Nc1c(-c2cc(Cl)cc(Cl)c2)c(C(F)(F)F)nn1-c1ccc(C(=O)NCc2ccccn2)c(C)c1 [I-A-Q2-197] | I-A-Q2-197: log P (HCOOH): 2.76 |
| Cc1cc(-n2nc(C(F)(F)F)c(-c3cc(Cl)cc(Cl)c3)c2N)ccc1C(=O)NCc1ccc([N+](=O)[O-])cc1 [I-A-Q2-249] | I-A-Q2-249: log P (HCOOH): 4.28 |
| CC(NC(=O)c1ccc(-n2nc(C(F)(F)F)c(-c3ccc(Cl)c(F)c3)c2N)cc1)C(F)(F)F (centres unmarked) [I-A-Q2-169] | I-A-Q2-169: log P (HCOOH): 3.78 |
| Cc1cc(-n2nc(C(F)(F)F)c(-c3ccc(Br)cc3)c2N)ccc1C(=O)NCC(F)(F)C(F)F [I-A-Q2-303] | I-A-Q2-303: log P (HCOOH): 3.70 |
| Cc1cc(-n2nc(C(F)(F)F)c(-c3cc(Cl)cc(Cl)c3)c2N)ccc1C(=O)NC(=C(Cl)C#N)C(F)(F)F [I-A-Q2-047] | I-A-Q2-047: log P (HCOOH): 4.94 |
| Cc1cc(-n2nc(C(F)(F)F)c(-c3ccc(Cl)c(Cl)c3)c2N)ccc1C(=O)NC(C)C(F)(F)F (centres unmarked) [I-A-Q2-019] | I-A-Q2-019: log P (HCOOH): 4.57 |
| Cc1nn(-c2ccc(C(=O)NC(C)C(F)(F)F)cc2)c(Br)c1-c1cccc(Cl)c1 (centres unmarked) [I-A-Q2-098] | I-A-Q2-098: log P (HCOOH): 4.36 |
| Cc1cc(-n2nc(C(F)(F)F)c(-c3cc(Cl)cc(Cl)c3)c2N)ccc1C(=O)NCC(=O)N1CCOCC1 [I-A-Q2-031] | I-A-Q2-031: log P (HCOOH): 3.33 |
| CC(NC(=O)c1ccc(-n2nc(C(F)(F)F)c(-c3ccc(Cl)cc3)c2N)cc1)C(F)(F)F (centres unmarked) [I-A-Q2-153] | I-A-Q2-153: log P (HCOOH): 3.89 |
| Cc1cc(-n2nc(C(F)(F)Cl)c(-c3cc(Cl)cc(C(F)(F)F)c3)c2N)ccc1C(=O)NCC(F)(F)C(F)F [I-A-Q2-322] | I-A-Q2-322: log P (HCOOH): 4.34 |
| Nc1c(-c2ccc(Cl)c(F)c2)c(C(F)(F)F)nn1-c1ccc(C(=O)NCc2ccccn2)cc1 [I-A-Q2-168] | I-A-Q2-168: log P (HCOOH): 2.61 |
| Cc1cc(-n2nc(CC(C)C)c(-c3ccc(Cl)cc3)c2N)ccc1C(=O)NCC(F)(F)C(F)F [I-A-Q2-342] | I-A-Q2-342: log P (HCOOH): 3.85 |

| Compound | log P (HCOOH) |
| --- | --- |
| Nc1c(-c2cc(Cl)cc(Cl)c2)c(C(F)(F)F)nn1-c1ccc(C(=O)NCC(F)(F)C(F)F)c(C(F)(F)F)c1 [I-A-Q2-385] | I-A-Q2-385: log P (HCOOH): 4.60 |
| Nc1c(-c2cc(Cl)cc(Cl)c2)c(C(F)(F)F)nn1-c1ccc(C(=O)NCc2ncccn2)cn1 [I-A-Q2-108] | I-A-Q2-108: log P (HCOOH): 3.80 |
| CC(NC(=O)c1ccc(-n2nc(C(F)(F)F)c(-c3cc(Cl)cc(Cl)c3)c2N)cc1)c1ccccc1 (centres unmarked) [I-A-Q2-150] | I-A-Q2-150: log P (HCOOH): 4.65 |
| Cc1cc(-n2nc(C(F)(F)F)c(Br)c2N)ccc1C(=O)O [XI-A-086] | XI-A-086: log P (HCOOH): 2.54 |
| CC(NC(=O)c1ccc(-n2nc(-c3ccccc3)c(-c3ccc(Cl)cc3)c2N)cc1)C(F)(F)F (centres unmarked) [I-A-Q2-075] | I-A-Q2-075: log P (HCOOH): 3.94 |
| CCCNC(=O)c1ccc(-n2nc(C(F)(F)F)c(-c3cc(Cl)cc(Cl)c3)c2N)cc1C [I-A-Q2-202] | I-A-Q2-202: log P (HCOOH): 4.22 |
| Cc1cc(-n2nc(C(F)(F)F)c(-c3cc(Cl)cc(Cl)c3)c2N)ccc1C(=O)NC1CCCCC1 [I-A-Q2-222] | I-A-Q2-222: log P (HCOOH): 4.76 |
| Nc1c(-c2ccc(Cl)c(Cl)c2)c(C(F)(F)F)nn1-c1ccc(C(=O)NCc2ccccn2)cc1 [I-A-Q2-158] | I-A-Q2-158: log P (HCOOH): 2.85 |
| Cc1cc(-n2nc(C(F)(F)F)c(-c3ccc(Cl)cc3Cl)c2N)ccc1C(=O)NCc1ccccn1 [I-A-Q2-348] | I-A-Q2-348: log P (HCOOH): 2.84 |
| Cc1cc(-n2nc(C)c(-c3c(Cl)cccc3Cl)c2N)ccc1C(=O)NCc1ccccn1 [I-A-Q2-376] | I-A-Q2-376: log P (HCOOH): 1.79 |
| CSc1c(-c2cc(Cl)cc(C(F)(F)F)c2)c(C(F)(F)F)nn1-c1ccc(C(=O)NC(C)C(F)(F)F)cc1 (centres unmarked) [I-A-Q2-068] | I-A-Q2-068: log P (HCOOH): 5.35 |
| Nc1c(-c2ccc(Cl)c(F)c2)c(C(F)(F)F)nn1-c1ccc(C(=O)NC2CC2)cc1 [I-A-Q2-170] | I-A-Q2-170: log P (HCOOH): 3.15 |
| CNC(=O)c1ccc(-n2nc(C(F)(F)F)c(-c3cc(Cl)cc(Cl)c3)c2N)cc1 [I-A-Q2-193] | I-A-Q2-193: log P (HCOOH): 3.42 |
| CCOC(=O)N1CCC(NC(=O)c2ccc(-n3nc(C(F)(F)F)c(-c4cc(Cl)cc(Cl)c4)c3N)cc2C)CC1 [I-A-Q2-204] | I-A-Q2-204: log P (HCOOH): 4.22 |
| Cc1cc(-n2nc(C(F)(F)F)c(-c3cc(Cl)cc(Cl)c3)c2N)ccc1C(=O)NCC(F)(F)F [I-A-Q2-014] | I-A-Q2-014: log P (HCOOH): 4.34 |
| Nc1c(-c2cc(Cl)cc(Cl)c2)c(C(F)(F)F)nn1-c1ccc(C(=O)NCc2ccccc2)cc1 [I-A-Q2-152] | I-A-Q2-152: log P (HCOOH): 4.45 |

Same assay, conditions: HCOOH; Table 4, compounds of formula I-A-Q4

| Compound | log P (HCOOH) |
| --- | --- |
| Nc1c(-c2ccc(I)cc2)c(C(F)(F)F)nn1-c1ccc(Cl)cn1 [I-A-Q4-051] | I-A-Q4-051: log P (HCOOH): 5.29 |
| Nc1c(-c2cc(Cl)cc(C(F)(F)F)c2)c(C(F)(F)F)nn1-c1ccc(Cl)cn1 [I-A-Q4-016] | I-A-Q4-016: log P (HCOOH): 5.76 |
| Nc1c(-c2cc(F)cc(Cl)c2)c(C(F)(F)F)nn1-c1ccc(Cl)cn1 [I-A-Q4-040] | I-A-Q4-040: log P (HCOOH): 5.29 |
| Nc1c(-c2ccc(F)c(Cl)c2)c(C(F)(F)F)nn1-c1ccc(Cl)cn1 [I-A-Q4-047] | I-A-Q4-047: log P (HCOOH): 4.95 |
| Nc1c(-c2ccc(Cl)cc2Cl)c(C(F)(F)F)nn1-c1ccc(C(=O)O)cc1 [I-A-Q4-095] | I-A-Q4-095: log P (HCOOH): 3.44 |
| CC(C)Cc1nn(-c2ccc(Cl)cn2)c(N)c1-c1ccc(Cl)cc1 [I-A-Q4-062] | I-A-Q4-062: log P (HCOOH): 5.97 |

Same assay, conditions: HCOOH; compounds of the formula (IX), Table 11

| Compound | log P (HCOOH) |
| --- | --- |
| Nc1[nH]nc(C(F)(F)F)c1-c1ccc(F)cc1 [IX-202] | IX-202: log P (HCOOH): 2.16 |

Same assay, conditions: HPLC, reversed-phase C18, mobile phase with formic acid

| Compound | log P (HCOOH) |
| --- | --- |
| N#Cc1cc(-n2nc(C(F)(F)F)c(-c3cccc(Br)c3)c2N)ccc1-n1cncn1 [I-A-Q1-046] | I-A-Q1-046: log P (HCOOH): 3.24 |
| N#Cc1cc(-n2nc(C(F)(F)F)c(-c3ccc(Cl)c(F)c3)c2N)ccc1-n1cncn1 [I-A-Q1-032] | I-A-Q1-032: log P (HCOOH): 3.28 |
| N#Cc1cc(-n2nc(C(F)(F)Cl)c(-c3cc(Cl)cc(C(F)(F)F)c3)c2N)ccc1-n1cncn1 [I-A-Q1-049] | I-A-Q1-049: log P (HCOOH): 4.11 |
| Cc1nn(-c2ccc(-n3cncn3)c(C#N)c2)c(N)c1-c1cc(Cl)ccc1Cl [I-A-Q1-028] | I-A-Q1-028: log P (HCOOH): 2.65 |
| Nc1c(-c2cc(Cl)cc(Cl)c2)c(C(F)(F)F)nn1-c1ccc(-n2cncn2)c(C(F)(F)F)c1 [I-A-Q1-068] | I-A-Q1-068: log P (HCOOH): 4.32 |
